In ChEMBL document CHEMBL1201862, “PubChem BioAssay data set” (2004):
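Five concentrations, 48 hours, 96-well plates. The concentration for 50% growth inhibition is given as GI50.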 The source made the active and inactive calls. No stated cut-off is given here; in the data, active = GI50 up to about 1.1 µM and inactive = higher.

Experiments:
Test in all cases: NCI-60 cell line screen, 48 h
SF-268 = test system: SF-268
HOP-92 = test system: HOP-92
HT-29 = test system: HT-29
M14 = test system: M14
NCI-H460 = test system: NCI-H460
MDA-MB-231 = test system: MDA-MB-231
CAKI-1 = test system: CAKI-1
OVCAR-4 = test system: OVCAR-4
MDA-MB-435 = test system: MDA-MB-435
NCI/ADR-RES = test system: NCI/ADR-RES
RXF 393 = test system: RXF 393
HOP-62 = test system: HOP-62
MCF7 = test system: MCF7
SW-620 = test system: SW-620
EKVX = test system: EKVX
NCI-H522 = test system: NCI-H522
U-251 = test system: U-251
NCI-H226 = test system: NCI-H226
UO-31 = test system: UO-31
K562 = test system: K562

Row | Compound | GI50 (SF-268) | GI50 (HOP-92) | GI50 (HT-29) | GI50 (M14) | GI50 (NCI-H460) | GI50 (MDA-MB-231) | GI50 (CAKI-1) | GI50 (OVCAR-4) | GI50 (MDA-MB-435) | GI50 (NCI/ADR-RES) | GI50 (RXF 393) | GI50 (HOP-62) | GI50 (MCF7) | GI50 (SW-620) | GI50 (EKVX) | GI50 (NCI-H522) | GI50 (U-251) | GI50 (NCI-H226) | GI50 (UO-31) | GI50 (K562)
1 | C[Si](C)(C)CCOCN(C(=O)C1=CCC2(CC1)OCCO2)c1ccccc1I | 21.8 µM (inactive) | 0.121 µM (active) | 34.3 µM (inactive) | 18.2 µM (inactive) | 20 µM (inactive) | 22.8 µM (inactive) | 24.2 µM (inactive) | 21.1 µM (inactive) | 13.9 µM (inactive) | 26.7 µM (inactive) | 17.5 µM (inactive) | 20.7 µM (inactive) | 14.2 µM (inactive) | 22.3 µM (inactive) | 14.8 µM (inactive) | 21.1 µM (inactive) | 24.9 µM (inactive) | 22.9 µM (inactive) | 19.4 µM (inactive) | 8.02 µM (inactive)
2 | NS(=O)(=O)c1ccc(NC(=S)N/C=C2\C(=O)Nc3ccccc3C2=O)cc1 | > 100 µM (inactive) | > 100 µM (inactive) | > 100 µM (inactive) | > 100 µM (inactive) | > 100 µM (inactive) | > 100 µM (inactive) | 20.1 µM (inactive) | > 100 µM (inactive) | > 100 µM (inactive) | > 100 µM (inactive) | > 100 µM (inactive) | > 100 µM (inactive) | > 100 µM (inactive) | > 100 µM (inactive) | > 100 µM (inactive) | > 100 µM (inactive) | > 100 µM (inactive) | > 100 µM (inactive) | > 100 µM (inactive) | > 100 µM (inactive)
3 | COc1ccc(/N=C(/SS/C(=N/c2ccc(OC)cc2)c2ccc([N+](=O)[O-])o2)c2ccc([N+](=O)[O-])o2)cc1 | 1.89 µM (inactive) | 3.53 µM (inactive) | 0.701 µM (active) | 1.7 µM (inactive) | 0.982 µM (active) | 2.77 µM (inactive) | 1.92 µM (inactive) | 1.42 µM (inactive) | 1.59 µM (inactive) | 1.39 µM (inactive) | 0.695 µM (active) | 1.94 µM (inactive) | 0.51 µM (active) | 0.35 µM (active) | 1.52 µM (inactive) | 0.286 µM (active) | 0.35 µM (active) | 10.1 µM (inactive) | 1.24 µM (inactive) | 1.19 µM (inactive)
4 | CNc1c2c(c3nc4ccccc4c4c3c1N=C4)NCCC2=O [PLAKINIDINE A] | 3.33 µM (inactive) | 4.51 µM (inactive) | 2.23 µM (inactive) | > 10 µM (inactive) | 3.15 µM (inactive) | 3.86 µM (inactive) | 4.69 µM (inactive) | 7.83 µM (inactive) | 5.79 µM (inactive) | 2.83 µM (inactive) | 5.41 µM (inactive) | 8.59 µM (inactive) | 2.66 µM (inactive) | 2.44 µM (inactive) | > 10 µM (inactive) | 3.27 µM (inactive) | 5.87 µM (inactive) | 7.43 µM (inactive) | 3.56 µM (inactive) | 2.43 µM (inactive)
5 | O=C(c1ccc(Cl)cc1)N(C(=S)OC12CC3CC(CC(C3)C1)C2)c1ccccc1 | 43.3 µM (inactive) | 34 µM (inactive) | 32.3 µM (inactive) | 34 µM (inactive) | 30 µM (inactive) | 29.4 µM (inactive) | 35.2 µM (inactive) | 39.5 µM (inactive) | 43.8 µM (inactive) | 36.5 µM (inactive) | 99.8 µM (inactive) | 45.5 µM (inactive) | 33.3 µM (inactive) | 34.4 µM (inactive) | 26.6 µM (inactive) | 21.1 µM (inactive) | 30.2 µM (inactive) | 30.9 µM (inactive) | 27 µM (inactive) | 29.8 µM (inactive)
6 | COC(=O)c1cc2ccc(OC(C)=O)c(OC(C)=O)c2cn1 | 20.8 µM (inactive) | 17.1 µM (inactive) | 23.9 µM (inactive) | 19 µM (inactive) | 21.1 µM (inactive) | 4.01 µM (inactive) | 20.8 µM (inactive) | 16.7 µM (inactive) | 1.73 µM (inactive) | 6.5 µM (inactive) | 17.4 µM (inactive) | 25.5 µM (inactive) | 2.79 µM (inactive) | 3.64 µM (inactive) | 22.6 µM (inactive) | 17.4 µM (inactive) | 3.64 µM (inactive) | 22.9 µM (inactive) | 15.8 µM (inactive) | 2.72 µM (inactive)
7 | CC(=O)c1ccc(O)c(CN(C2CCCCC2)C2CCCCC2)c1O | > 100 µM (inactive) | > 100 µM (inactive) | > 100 µM (inactive) | > 100 µM (inactive) | > 100 µM (inactive) | > 100 µM (inactive) | > 100 µM (inactive) | > 100 µM (inactive) | > 100 µM (inactive) | > 100 µM (inactive) | > 100 µM (inactive) | > 100 µM (inactive) | > 100 µM (inactive) | 81.1 µM (inactive) | > 100 µM (inactive) | > 100 µM (inactive) | > 100 µM (inactive) | > 100 µM (inactive) | 83.2 µM (inactive) | > 100 µM (inactive)
8 | CC(C)C(N)(C(=O)O)c1ccccc1 (stereo not given) | > 100 µM (inactive) | > 100 µM (inactive) | > 100 µM (inactive) | > 100 µM (inactive) | > 100 µM (inactive) | > 100 µM (inactive) | > 100 µM (inactive) | > 100 µM (inactive) | > 100 µM (inactive) | > 100 µM (inactive) | > 100 µM (inactive) | > 100 µM (inactive) | > 100 µM (inactive) | > 100 µM (inactive) | > 100 µM (inactive) | > 100 µM (inactive) | > 100 µM (inactive) | > 100 µM (inactive) | > 100 µM (inactive) | > 100 µM (inactive)
9 | O=C1CSC2(CCN(CCCN3c4ccccc4Sc4ccc(Cl)cc43)CC2)N1 | 8.34 µM (inactive) | 5.55 µM (inactive) | 3.53 µM (inactive) | 6.81 µM (inactive) | 4.08 µM (inactive) | 7.06 µM (inactive) | 12.5 µM (inactive) | 10.5 µM (inactive) | 11.4 µM (inactive) | 4.9 µM (inactive) | 3.07 µM (inactive) | 12.9 µM (inactive) | 5.9 µM (inactive) | 11.2 µM (inactive) | 9.31 µM (inactive) | 10.1 µM (inactive) | 8.51 µM (inactive) | 17.6 µM (inactive) | 6.75 µM (inactive) | 3.79 µM (inactive)
10 | COC(=O)C1OC(O[C@H]2CC[C@]3(C)[C@H]4CC=C5[C@@H]6CC(C)(C)CC[C@]6(C(=O)OC)CC[C@@]5(C)[C@]4(C)CC[C@H]3C2(C)C)C(O)C(O)C1O (stereo not given in full) | 17.8 µM (inactive) | 19.4 µM (inactive) | 10.5 µM (inactive) | 16.2 µM (inactive) | 8.38 µM (inactive) | 4.45 µM (inactive) | 8.85 µM (inactive) | 14.4 µM (inactive) | 16.5 µM (inactive) | 15.8 µM (inactive) | 5.62 µM (inactive) | 18 µM (inactive) | 12.5 µM (inactive) | 17 µM (inactive) | 12.4 µM (inactive) | 15.4 µM (inactive) | 11.4 µM (inactive) | 18.3 µM (inactive) | 19.3 µM (inactive) | 14.9 µM (inactive)
11 | CC(C)c1nc2cc(C(F)(F)F)ccc2[nH]c1=O | 88.5 µM (inactive) | 42.5 µM (inactive) | 72.1 µM (inactive) | > 100 µM (inactive) | > 100 µM (inactive) | 69 µM (inactive) | 72.6 µM (inactive) | 94.8 µM (inactive) | > 100 µM (inactive) | 57.8 µM (inactive) | 49.1 µM (inactive) | 79.8 µM (inactive) | 85.9 µM (inactive) | > 100 µM (inactive) | 7 µM (inactive) | 39 µM (inactive) | > 100 µM (inactive) | 51.3 µM (inactive) | > 100 µM (inactive) | > 100 µM (inactive)
12 | CCOC(=O)c1c(N2CCOCC2)[nH]c(=O)c(C(c2ccc(OC)cc2)c2c(O)c(C(=O)OCC)c(N3CCOCC3)[nH]c2=O)c1O | > 100 µM (inactive) | > 100 µM (inactive) | > 100 µM (inactive) | > 100 µM (inactive) | > 100 µM (inactive) | > 100 µM (inactive) | > 100 µM (inactive) | > 100 µM (inactive) | > 100 µM (inactive) | > 100 µM (inactive) | > 100 µM (inactive) | > 100 µM (inactive) | > 100 µM (inactive) | > 100 µM (inactive) | > 100 µM (inactive) | > 100 µM (inactive) | > 100 µM (inactive) | > 100 µM (inactive) | > 100 µM (inactive) | > 100 µM (inactive)
13 | O=C(O)CC1NCc2cc3ccccc3nc21 (stereo not given) | > 100 µM (inactive) | > 100 µM (inactive) | > 100 µM (inactive) | > 100 µM (inactive) | > 100 µM (inactive) | > 100 µM (inactive) | > 100 µM (inactive) | > 100 µM (inactive) | > 100 µM (inactive) | > 100 µM (inactive) | > 100 µM (inactive) | > 100 µM (inactive) | > 100 µM (inactive) | > 100 µM (inactive) | 61.9 µM (inactive) | > 100 µM (inactive) | > 100 µM (inactive) | > 100 µM (inactive) | > 100 µM (inactive) | > 100 µM (inactive)
14 | O=[N+]([O-])c1ccc2c(c1)N=C1OC(c3c[nH]c4ccc(COc5ccccc5)cc34)C(O)=C1N2 (stereo not given) | > 100 µM (inactive) | > 100 µM (inactive) | > 100 µM (inactive) | > 100 µM (inactive) | > 100 µM (inactive) | 56.6 µM (inactive) | > 100 µM (inactive) | > 100 µM (inactive) | > 100 µM (inactive) | > 100 µM (inactive) | > 100 µM (inactive) | 60.3 µM (inactive) | 55 µM (inactive) | > 100 µM (inactive) | > 100 µM (inactive) | 17.3 µM (inactive) | > 100 µM (inactive) | > 100 µM (inactive) | > 100 µM (inactive) | 3.73 µM (inactive)
